Experimental data published in patent US11952603B2, “Method for reducing or inactivating viral and microbial content in the processes for the manufacture of pancreatin” (SCIENTIFIC PROTEIN LABORATORIES, LLC, priority 2015, dated 2024).
Where two headings read alike, the source gives them in different places.

Experiments:
[1] = tested on: aerobic microorganisms (TAMC); assay: Total Aerobic Microbial Count (TAMC) of porcine pancreas glands after PAA treatment
Protocol: For the preparation of pancreatin, 3 kg thawed whole porcine pancreas glands and 3 kg of porcine pancreas glands cut into approximately 2-inch strips were submerged in two different concentrations of PAA, 500 ppm and 2000 ppm for 10 and 15 minutes at room temperature (18-22° C.). Treated glands were rinsed with process water and placed into a sterile sample bag and stored at −20° C. for freezing not less than 12 hours. A total of 6 samples were tested per run. The preparation was executed 2 times. […] Whole gland (A)—500 ppm; • 2. Whole gland (B)—2000 ppm; • 3. Strip gland (A)—500 ppm; • 4. Strip gland (B)—2000 ppm; • 5. Whole gland (C)—No treatment-Control; • 6. Strip gland (C)—No treatment-Control. For all result see Tables 1 and 2.
The strip glands remained consistent.
For the preparation of pancreatin, 3 kg thawed whole glands and 3 kg of milled gland were submerged in two different concentrations of PAA, 500 ppm and 2000 ppm for 10 and 15 minutes at room temperature (18-22° C.). Treated glands were rinsed with purified water and placed into a sterile sample bag and stored at −20° C. for freezing not less than 12 hours. A total of 6 samples were tested per run. The preparation was executed 2 times. Milled glands were difficult to process due to slurry being formed after PAA treatment. […] Whole gland (A)—500 ppm; • 2. Whole gland (B)—2000 ppm; • 3. Milled gland (A)—500 ppm; • 4. Milled gland (B)—2000 ppm; • 5. Whole gland (C)—No treatment-Control; • 6. Milled gland (C)—No treatment-Control. For all results see table 3 and 4.
The TAMC results for both the whole glands and milled before PAA treatments were similar with 1400 and 1100 CFU/g. After 500 ppm and 2000 ppm PAA treatment, the TAMC results for the treated whole glands were exactly the same, 10 CFU/g. The milled glands were not tested after PAA treatment. See results in table 3.

[2] = tested on: Porcine circovirus type 2 (PCV 2); assay: Infectious PCV-2 titer by cell based in vitro assay using PK-13 cells (Large Volume Plating, interference assay); conditions: 500 and 2000 ppm, endogenous virus
[3] = tested on: Encephalomycarditis Virus (EMC); type: cell-based, Encephalomyocarditis virus; conditions: 10,000 ppm PAA
[4] = tested on: Murine Minute Virus (MMV); assay: Viral clearance of spiked MMV on PAA-treated glands, TCID50 endpoint assay; type: cell-based; conditions: 10,000 ppm PAA, 30 min sample vs Recovery Control 0 minute
virus = assay: Transmission electron microscopy of gland tissue and pancreatin powder for virus; conditions: 20,000 ppm PAA for 30 minutes
Protocol: Electron Microscopic Study: Referring to FIGS. 4A-4D, transmission electron microscopy (TEM) and scanning electron microscopy (SEM) were performed to visualize the presence of bacteria and viruses on surface of pancreas gland tissue and pancreatin powder treated with differing concentration of PAA and were compared to non-treated (control) samples.
Pancreas gland tissues treated with PAA and untreated samples as well as resulting pancreatin powder produced with PAA treatment were analyzed with TEM and SEM. For SEM samples were coated with an ultrathin coating of electrically conducting material, deposited on the sample by low-vacuum sputter coating evaporation. A conductive material in current coating used was gold to observe bacteria and viruses. A ZEISS LEO-1530 DSM scanning electron microscope was used to produce the images of FIGS. 4A and 4B. […] (scale bar is 2 μm). […] Viruses are very small in size (15 to 100 nm) and were not possible to observe in SEM. For TEM the pancreas gland tissue and pancreatin powder sample treated with 20,000 ppm PAA for 30 minutes and control samples were stained with 2% uranyl acetate (aq). A Model H-7600 HITACHI transmission electron microscope, Version 3.01, was used to produces the images of FIGS. 4C and 4D. Three TEM slides of each treatment were observed. Each TEM slide had 400 grids to observe. A minimum of 10-15 grids per slide were observed.

vegetative bacteria = conditions: within 1 min at 25° C., 1.3 mmol/L of PAA; cited from earlier work
[5] = tested on: Gram-positive and Gram negative bacteria, fungi and yeasts; conditions: at concentrations of <100 ppm; cited from earlier work
viruses = conditions: cited from earlier work
[6] = Strip Gland, Run # 1, Example 1
[7] = Whole Gland, Run # 1, Example 1
[8] = Whole Gland, Run # 2, Example 1

SMILES: CC(=O)OO [PAA, Peracetic acid]
- TAMC After Treatment at 500 ppm [1, 6]: 130 CFU/g
- TAMC After Treatment at 2000 ppm [1, 6]: 45 CFU/g
- TAMC After 500 ppm PAA Treatment ([1]; Whole Gland, Example 2): 10 CFU/g
- TAMC After 2000 ppm PAA Treatment ([1]; Whole Gland, Example 2): 10 CFU/g
- TAMC After Treatment at 500 ppm [1, 7]: 90 CFU/g
- TAMC After Treatment at 2000 ppm [1, 7]: 50 CFU/g
- TAMC After Treatment at 500 ppm [1, 8]: 30 CFU/g
- TAMC After Treatment at 2000 ppm [1, 8]: 10 CFU/g
- effect of PAA surface treatment in PCV-2 infectivity test [2]: no discernable effect
- EMC reduction factor ([3]; at 15 minutes): about 1.75 log10
- EMC reduction factor ([3]; calculated using the 30 min sample): about 0.8 log10
- MMV reduction factor [4]: 3.0±0.9 Log10
- virus in pancreas gland tissue (TEM) (virus): No virus was observed
- reduction factor in the number of vegetative bacteria (vegetative bacteria): 10^6
- time to inactivate [5]: less than 5 minutes
- dosage range for viruses (viruses): 100-40,000 ppm
